Laboratory results: patent publication US11739101B2, “Bifunctional degraders of hematopoietic progenitor kinase and therapeutic uses thereof” (Nurix Therapeutics, Inc., priority 2020, dated 2023)

What follows are compounds tested against T1, HPK1 (Homo sapiens, UniProt Q92918) (assay: HPK1 Cellular HiBiT Degradation Assay). Settings: HiBiT-tagged HPK1 Jurkat cells, 24 hours, 10 uM to 0.1 nM; Dmax = 100 minus lowest % HPK1 remaining vs DMSO vehicle.
T1 construct: A HiBiT tag was introduced by CRISPR on the N terminus of HPK1 in Jurkat cells; host or cells: Jurkat (ATCC TIB-152), monoclonal CRISPR HiBiT knock-in line
Assay type: cell-based
Method in brief: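 Jurkat cells with CRISPR N-terminal HiBiT-tagged HPK1 were exposed to an 11-point 3.16-fold dilution series, 10 uM to 0.1 nM final, for 24 hours at 37° C./5% CO2. HPK1 was read by HiBiT lytic luminescence against DMSO as 100% and parental cells as background. Dmax is 100 minus the lowest % remaining from a four-parameter fit, with a parallel CellTiter-Glo viability check.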

T1 sequence (Q92918 whole entry): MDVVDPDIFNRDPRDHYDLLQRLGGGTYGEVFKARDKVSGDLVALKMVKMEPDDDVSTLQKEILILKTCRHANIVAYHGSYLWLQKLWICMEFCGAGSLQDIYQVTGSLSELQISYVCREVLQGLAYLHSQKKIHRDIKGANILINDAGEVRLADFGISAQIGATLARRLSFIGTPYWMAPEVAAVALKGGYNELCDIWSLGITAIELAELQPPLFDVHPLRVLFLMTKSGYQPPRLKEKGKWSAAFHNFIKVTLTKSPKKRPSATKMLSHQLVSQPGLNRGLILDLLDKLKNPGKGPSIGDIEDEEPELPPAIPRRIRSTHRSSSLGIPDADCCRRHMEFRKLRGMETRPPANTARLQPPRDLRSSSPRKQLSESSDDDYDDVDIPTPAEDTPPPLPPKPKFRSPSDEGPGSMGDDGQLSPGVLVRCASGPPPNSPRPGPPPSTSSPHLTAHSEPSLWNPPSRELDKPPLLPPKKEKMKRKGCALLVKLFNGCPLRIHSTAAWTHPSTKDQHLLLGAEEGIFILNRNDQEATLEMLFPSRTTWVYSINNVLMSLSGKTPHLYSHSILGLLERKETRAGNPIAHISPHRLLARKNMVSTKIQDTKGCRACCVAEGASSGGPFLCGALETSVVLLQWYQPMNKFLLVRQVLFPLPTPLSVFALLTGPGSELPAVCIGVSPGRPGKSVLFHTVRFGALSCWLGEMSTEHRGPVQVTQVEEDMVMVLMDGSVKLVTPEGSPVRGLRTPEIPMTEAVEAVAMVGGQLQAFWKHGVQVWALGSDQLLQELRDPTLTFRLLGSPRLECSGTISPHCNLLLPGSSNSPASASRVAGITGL

| SMILES | Dmax |
| --- | --- |
| Cc1cc(F)c(Nc2nc(-c3ccc4c(c3)N([C@H]3C[C@@H](N5CCCCC5)C3)C(=O)C43CCN(C(=O)[C@@H]4CCN(C(=O)c5cnc(N6CCN(c7cccc8c7C(=O)N(C7CCC(=O)NC7=O)C8=O)CC6)cn5)C4)CC3)cc3ncn(C(C)C)c23)cc1C(=O)NC(C)C (stereo partly drawn) [Example 86, 5-((6-(1′-((3R)-1-(5-(4-(2-(2,6-dioxopiperidin-3-yl)-1,3-dioxoisoindolin-4-yl)piperazin-1-yl)pyrazine-2-carbonyl)pyrrolidine-3-carbonyl)-2-oxo-1-((1s,3s)-3-(piperidin-1-yl)cyclobutyl)spiro[indoline-3,4′-piperidin]-6-yl)-3-isopropyl-3H-imidazo[4,5-c]pyridin-4-yl)amino)-4-fluoro-N-isopropyl-2-methylbenzamide] | 45 to 65% |
| Cc1cc(F)c(Nc2nc(-c3ccc4c(c3)N([C@H]3C[C@@H](N5CCCCC5)C3)C(=O)C43CCN(C(=O)c4ccc(C(=O)N5CCC(c6ccc7c(c6)C(=O)N(C6CCC(=O)NC6=O)C7=O)CC5)cc4)CC3)cc3ncn(C(C)C)c23)cc1C(=O)NC(C)C (stereo partly drawn) [Example 76, 5-[(6-{1′-[4-(4-{2-[2,6-dioxopiperidin-3-yl]-1,3-dioxo-2,3-dihydro-1H-isoindol-5-yl}piperidine-1-carbonyl)benzoyl]-2-oxo-1-[(1s,3s)-3-(piperidin-1-yl)cyclobutyl]-1,2-dihydrospiro[indole-3,4′-piperidin]-6-yl}-3-(propan-2-yl)-3H-imidazo[4,5-c]pyridin-4-yl)amino]-4-fluoro-2-methyl-N-(propan-2-yl)benzamide] | 45 to 65% |
| Cc1cc(F)c(Nc2nc(-c3ccc4c(c3)N([C@H]3C[C@@H](N5CCCCC5)C3)C(=O)C43CCN(C(=O)C4CCN(CC5CCN(c6cccc7c6C(=O)N(C6CCC(=O)NC6=O)C7=O)CC5)CC4)CC3)cc3ncn(C(C)C)c23)cc1C(=O)NC(C)C (stereo partly drawn) [Example 37, 5-{[6-(1′-{1-[(1-{2-[2,6-dioxopiperidin-3-yl]-1,3-dioxo-2,3-dihydro-1H-isoindol-4-yl}piperidin-4-yl)methyl]piperidine-4-carbonyl}-2-oxo-1-[(1s,3s)-3-(piperidin-1-yl)cyclobutyl]-1,2-dihydrospiro[indole-3,4′-piperidin]-6-yl)-3-(propan-2-yl)-3H-imidazo[4,5-c]pyridin-4-yl]amino}-4-fluoro-2-methyl-N-(propan-2-yl)benzamide] | > 65% |
| Cc1cc(F)c(Nc2nc(-c3ccc4c(c3)N([C@H]3C[C@@H](N5CCCCC5)C3)C(=O)C43CCN(C(=O)CN4CCN(CC(=O)N[C@H](C(=O)N5C[C@H](O)C[C@H]5C(=O)N[C@@H](C)c5ccc(-c6scnc6C)cc5)C(C)(C)C)CC4)CC3)cc3ncn(C(C)C)c23)cc1C(=O)NC(C)C [Example 18, (2S,4R)-1-((S)-2-(2-(4-(2-(6-(4-((2-fluoro-5-(isopropylcarbamoyl)-4-methylphenyl)amino)-3-isopropyl-3H-imidazo[4,5-c]pyridin-6-yl)-2-oxo-1-((1s,3s)-3-(piperidin-1-yl)cyclobutyl)spiro[indoline-3,4′-piperidin]-1′-yl)-2-oxoethyl)piperazin-1-yl)acetamido)-3,3-dimethylbutanoyl)-4-hydroxy-N—((S)-1-(4-(4-methylthiazol-5-yl)phenyl)ethyl)pyrrolidine-2-carboxamide] | 45 to 65% |
| Cc1cc(F)c(Nc2nc(-c3ccc4c(c3)N([C@H]3C[C@@H](N5CCCCC5)C3)C(=O)C43CCN(C(=O)c4cnn(C[C@H]5CC[C@H](Nc6cccc7c6C(=O)N(C6CCC(=O)NC6=O)C7=O)CC5)c4)CC3)cc3ncn(C(C)C)c23)cc1C(=O)NC(C)C (stereo partly drawn) [Example 70, 4-fluoro-2-methyl-5-({6-[2-oxo-1′-(1-{[(1R,4R)-4-({2-[2,6-dioxopiperidin-3-yl]-1,3-dioxo-2,3-dihydro-1H-isoindol-4-yl}amino)cyclohexyl]methyl}-1H-pyrazole-4-carbonyl)-1-[(1s,3s)-3-(piperidin-1-yl)cyclobutyl]-1,2-dihydrospiro[indole-3,4′-piperidin]-6-yl]-3-(propan-2-yl)-3H-imidazo[4,5-c]pyridin-4-yl}amino)-N-(propan-2-yl)benzamide] | 45 to 65% |
| Cc1cc(F)c(Nc2nc(-c3ccc4c(c3)N([C@H]3C[C@@H](N5CCCCC5)C3)C(=O)C43CCN(C(=O)CCN4CCC(CCCCC(=O)N[C@H](C(=O)N5C[C@H](O)C[C@H]5C(=O)N[C@@H](C)c5ccc(-c6scnc6C)cc5)C(C)(C)C)CC4)CC3)cc3ncn(C(C)C)c23)cc1C(=O)NC(C)C [Example 20, (2S,4R)-1-((S)-2-(5-(1-(3-(6-(4-((2-fluoro-5-(isopropylcarbamoyl)-4-methylphenyl)amino)-3-isopropyl-3H-imidazo[4,5-c]pyridin-6-yl)-2-oxo-1-((1s,3s)-3-(piperidin-1-yl)cyclobutyl)spiro[indoline-3,4′-piperidin]-1′-yl)-3-oxopropyl)piperidin-4-yl)pentanamido)-3,3-dimethylbutanoyl)-4-hydroxy-N—((S)-1-(4-(4-methylthiazol-5-yl)phenyl)ethyl)pyrrolidine-2-carboxamide] | < 45% |
| CC(=O)N1CCC2(CC1)C(=O)N([C@H]1C[C@@H](N3CCC[C@@H](C(=O)NCCCCCCCCCNc4ccc5c(c4)C(=O)N(C4CCC(=O)NC4=O)C5=O)C3)C1)c1cc(-c3cc4ncn(C(C)C)c4c(Nc4cc(C(=O)NC(C)C)c(C)cc4F)n3)ccc12 (stereo partly drawn) [Example 15, (3R)-1-((1s,3s)-3-(1′-acetyl-6-(4-((2-fluoro-5-(isopropylcarbamoyl)-4-methylphenyl)amino)-3-isopropyl-3H-imidazo[4,5-c]pyridin-6-yl)-2-oxospiro[indoline-3,4′-piperidin]-1-yl)cyclobutyl)-N-(9-((2-(2,6-dioxopiperidin-3-yl)-1,3-dioxoisoindolin-5-yl)amino)nonyl)piperidine-3-carboxamide] | < 45% |
| Cc1cc(F)c(Nc2nc(-c3ccc4c(c3)N([C@H]3C[C@@H](N5CCCCC5)C3)C(=O)C43CCN(C(=O)C4CCN(C(=O)C5CCN(C(=O)CNc6cccc7c6C(=O)N(C6CCC(=O)NC6=O)C7=O)CC5)C4)CC3)cc3ncn(C(C)C)c23)cc1C(=O)NC(C)C (stereo partly drawn) [Example 49] | 45 to 65% |
| Cc1cc(F)c(Nc2nc(-c3ccc4c(c3)N([C@H]3C[C@@H](N5CCCCC5)C3)C(=O)C43CCN(C(=O)c4ccc(N5CCN(c6cccc7c6C(=O)N(C6CCC(=O)NC6=O)C7=O)CC5)nc4)CC3)cc3ncn(C(C)C)c23)cc1C(=O)NC(C)C (stereo partly drawn) [Example 83, 5-((6-(1′-(6-(4-(2-(2,6-dioxopiperidin-3-yl)-1,3-dioxoisoindolin-4-yl)piperazin-1-yl)nicotinoyl)-2-oxo-1-((1s,3)-3-(piperidin-1-yl)cyclobutyl)spiro[indoline-3,4′-piperidin]-6-yl)-3-isopropyl-3H-imidazo[4,5-c]pyridin-4-yl)amino)-4-fluoro-N-isopropyl-2-methylbenzamide] | < 45% |
| Cc1cc(F)c(Nc2nc(-c3ccc4c(c3)N([C@H]3C[C@@H](N5CCCCC5)C3)C(=O)C43CCN(C(=O)C4CCN(C(=O)C5CCN(c6cccc7c6C(=O)N(C6CCC(=O)NC6=O)C7=O)CC5)C4)CC3)cc3ncn(C(C)C)c23)cc1C(=O)NC(C)C (mixture of isomers) [Example 25, 5-[(6-{1′-[1-(1-{2-[(3RS)-2,6-dioxopiperidin-3-yl]-1,3-dioxo-2,3-dihydro-1H-isoindol-4-yl}piperidine-4-carbonyl)pyrrolidine-3-carbonyl]-2-oxo-1-[(1s,3s)-3-(piperidin-1-yl)cyclobutyl]-1,2-dihydrospiro[indole-3,4′-piperidin]-6-yl}-3-(propan-2-yl)-3H-imidazo[4,5-c]pyridin-4-yl)amino]-4-fluoro-2-methyl-N-(propan-2-yl)benzamide] | 45 to 65% |
| Cc1cc(F)c(Nc2nc(-c3ccc4c(c3)N([C@H]3C[C@@H](N5CCCCC5)C3)C(=O)C43CCN(C(=O)CN4CCC(c5ccc(C(=O)NCCNc6cccc7c6C(=O)N(C6CCC(=O)NC6=O)C7=O)cc5)CC4)CC3)cc3ncn(C(C)C)c23)cc1C(=O)NC(C)C (stereo partly drawn) [Example 90, 5-[(6-{1′-[2-(4-{4-[(2-{[2-(2,6-dioxopiperidin-3-yl)-1,3-dioxoisoindol-4-yl]amino}ethyl)carbamoyl]phenyl}piperidin-1-yl)acetyl]-2-oxo-1-[(1s,3s)-3-(piperidin-1-yl)cyclobutyl]spiro[indole-3,4′-piperidin]-6-yl}-3-isopropylimidazo[4,5-c]pyridin-4-yl)amino]-4-fluoro-N-isopropyl-2-methylbenzamide] | 45 to 65% |
| Cc1cc(F)c(Nc2nc(-c3ccc4c(c3)N([C@H]3C[C@@H](N5CCCCC5)C3)C(=O)C43CCN(C(=O)CN4CCC(CCCCC(=O)N[C@H](C(=O)N5C[C@H](O)C[C@H]5C(=O)N[C@@H](C)c5ccc(-c6scnc6C)cc5)C(C)(C)C)CC4)CC3)cc3ncn(C(C)C)c23)cc1C(=O)NC(C)C [Example 19, (2S,4R)-1-((S)-2-(5-(1-(2-(6-(4-((2-fluoro-5-(isopropylcarbamoyl)-4-methylphenyl)amino)-3-isopropyl-3H-imidazo[4,5-c]pyridin-6-yl)-2-oxo-1-((1s,3s)-3-(piperidin-1-yl)cyclobutyl)spiro[indoline-3,4′-piperidin]-1′-yl)-2-oxoethyl)piperidin-4-yl)pentanamido)-3,3-dimethylbutanoyl)-4-hydroxy-N—((S)-1-(4-(4-methylthiazol-5-yl)phenyl)ethyl)pyrrolidine-2-carboxamide] | < 45% |
